Measurements reported in patent publication US12139508B2, “Steroid derivative regulators, method for preparing the same, and uses thereof” (JIANGSU HANSOH PHARMACEUTICAL GROUP CO., LTD., priority 2018, dated 2024).
Read-outs that look alike come from different tables or passages of the source.

Legend:
[1] = Pharmacokinetic assay in Balb/c mice (plasma and brain tissue); type: in vivo; details: mouse, po, 5 mg/kg p.o., male Balb/c mice; for AUC(0-t): read-out: Area under curve AUC0-t; for AUC(0-inf): read-out: Area under curve AUC0-∞; for half-life: read-out: Half-life t1/2 (converted); for MRT: read-out: Mean residence time MRT; for Tmax: read-out: Peak time tmax; for Cmax: read-out: Plasma concentration Cmax
Procedure: Balb/c mice were used as test animals. The pharmacokinetic behavior in mice (plasma and brain tissue) of the compounds of Examples 2, 3, 5, 6, 9, 13, 59, 60, 61, 63, 71-74, 81, 103, 130, 134, 135, 137, 138, 140, 141, 143, 145 and 146 orally administered at a dose of 5 mg/kg was studied.
Each group had 24 male Balb/c mice. After an overnight fast, Balb/c mice were administered p.o. with the test compound at an administration dose of 5 mg/kg and an administration volume of 10 mL/kg.
0.2 ml of blood was taken from the heart before administration and at 0, 0.5, 1, 2, 4, 6, 8 and 24 hours after administration. The samples were stored in EDTA-K2 tubes, and centrifuged for 6 minutes at 4° C., 6000 rpm to separate the plasma. The plasma samples were stored at −80° C. The mice were sacrificed with CO2, and the whole brain tissue was taken out, weighed, placed in a 2 mL centrifuge tube and stored at −80° C.
1) 160 μL of acetonitrile was added to 40 μL of the plasma sample for precipitation, and then the mixture was centrifuged for 5-20 minutes at 3500×g.
2) 90 μL of acetonitrile containing the internal standard (100 ng/mL) was added to 30 μL of the plasma and brain homogenate samples for precipitation, and then the mixture was centrifuged for 8 minutes at 13000 rpm.
3) 70 μL of the treated supernatant was taken and added to 70 μL of water, and mixed by vortex for 10 minutes. 20 μL of the mixture was taken to analyze the concentration of the test compound by LC/MS/MS. LC/MS/MS analysis instrument: AB Sciex API 4000 Qtrap.
• Liquid chromatography condition: Shimadzu LC-20AD pump. • Chromatographic column: Agilent ZORBAX™ XDB-C18 (50×2.1 mm, 3.5 μm) (note: Aglient ZORBAX™ is a kind of column used in the reverse HPLC); • Mobile phase: Eluent A was 0.10% formic acid in water, and Eluent B was acetonitrile. • Flow rate: 0.4 mL/min • Elution time: 0-4.0 minutes, the eluent is as follows:
The main parameters of pharmacokinetics were calculated by WinNonlin 6.1.

[2] = target: GABA-A receptor; assay: 35S-TBPS binding assay (GABAA receptor binding ability test); design: species or system Sprague-Dawley rat; details: rat cerebral cortex cell membrane, 5 μM GABA, 2 nM 35S-TBPS; read-out: 35S-TBPS bindng test: IC50 on inhibiting the TBPS binding activity
In short: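 Rat (male Sprague-Dawley) cortical membranes in PBS were preincubated 5 min at 25° C with compound (from 1 μM, 3-fold, 8 points, 1% DMSO), then 5 μM GABA 5 min, then 2 nM ^35S-TBPS for 20 h at 4° C. Filter-bound counts gave % inhibition against DMSO and 10 μM P026-2 controls; IC50 by 4-parameter fit.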

Compound	AUC(0-t) ([1]; brain tissue)	AUC(0-inf) ([1]; brain tissue)	half-life ([1]; brain tissue)	MRT ([1]; brain tissue)	Tmax ([1]; brain tissue)	Cmax ([1]; brain tissue)	AUC(0-t) ([1]; plasma)	AUC(0-inf) ([1]; plasma)	half-life ([1]; plasma)	MRT ([1]; plasma)	Tmax ([1]; plasma)	Cmax ([1]; plasma)	IC50 [2]
C[C@@]1(O)CC[C@H]2[C@H](CC[C@@H]3[C@@H]2CC[C@@]2(C)[C@H]3[C@@H]3C[C@@H]3[C@@H]2C(=O)Cn2ccc(C(F)(F)F)n2)C1 [Example 6, 1-((2R,4aS,4bR,6aS,7S,7aS,8aR,8bR,8cR,10aR)-2-Hydroxy-2,6a-dimethyloctadecahydrocyclopropa[4,5]cyclopenta[1,2-a]phenanthren-7-yl)-2-(3-(trifluoromethyl)-1H-pyrazol-1-yl)ethan-1-one]	917 ng·h/mL	964 ng·h/mL	114 min	2.4 h	30 min	464 ng/mL	409 ng·h/mL	484 ng·h/mL	191 min	4.03 h	30 min	219 ng/mL	3.1 nM
C[C@@]1(O)CC[C@H]2[C@H](CC[C@@H]3[C@@H]2CC[C@@]2(C)[C@H]3[C@@H]3C[C@@H]3[C@@H]2C(=O)Cn2ncnn2)C1 [Example 9, 1-((2R,4aS,4bR,6aS,7S,7aS,8aR,8bR,8cR,10aR)-2-Hydroxy-2,6a-dimethyloctadecahydrocyclopropa[4,5]cyclopenta[1,2-a]phenanthren-7-yl)-2-(2H-tetrazol-2-yl)ethan-1-one]	677 ng·h/mL	680 ng·h/mL	30 min	0.9 h	30 min	605 ng/mL	775 ng·h/mL	778 ng·h/mL	54 min	1.1 h	30 min	664 ng/mL	21.3 nM
C[C@@H]1C[C@H](C(=O)Cn2cc(C(F)(F)F)cn2)[C@@]2(C)CC[C@H]3[C@@H](CC[C@@H]4C[C@](C)(O)CC[C@@H]43)[C@H]12 [Example 59, 1-((3R,5R,8R,9R,10S,13S,14S,15R,17S)-3-Hydroxy-3,13,15-trimethylhexadecahydro-1H-cyclopenta[a]phenanthren-17-yl)-2-(4-(trifluoromethyl)-1H-pyrazol-1-yl)ethan-1-one]	2640 ng·h/mL	2680 ng·h/mL	191 min	4.81 h	60 min	678 ng/mL	1300 ng·h/mL	1320 ng·h/mL	179 min	4.15 h	30 min	554 ng/mL	6.2 nM
C[C@@H]1C[C@H](C(=O)Cn2ncnn2)[C@@]2(C)CC[C@H]3[C@@H](CC[C@@H]4C[C@](C)(O)CC[C@@H]43)[C@H]12 [Example 63, 1-((3R,5R,8R,9R,10S,13S,14S,15R,17S)-3-Hydroxy-3,13,15-trimethylhexadecahydro-1H-cyclopenta[a]phenanthren-17-yl)-2-(2H-tetrazol-2-yl)ethan-1-one]	603 ng·h/mL	618 ng·h/mL	43.2 min	1.21 h	30 min	486 ng/mL	599 ng·h/mL	604 ng·h/mL	155 min	2.42 h	30 min	335 ng/mL	6.1 nM
C[C@@]1(O)CC[C@H]2[C@H](CC[C@@H]3[C@@H]2CC[C@@]2(C)[C@H]3[C@@H]3C[C@@H]3[C@@H]2C(=O)COc2cnc(C(F)(F)F)nc2)C1 [Example 130, 1-((2R,4aS,4bR,6aS,7S,7aS,8aR,8bR,8cR,10aR)-2-Hydroxy-2,6a-dimethyloctadecahydrocyclopropa[4,5]cyclopenta[1,2-a]phenanthren-7-yl)-2-((2-(trifluoromethyl)pyrimidin-5-yl)oxy)ethan-1-one]	2310 ng·h/mL	2630 ng·h/mL	149 min	3.88 h	30 min	563 ng/mL	1390 ng·h/mL	1560 ng·h/mL	133 min	3.83 h	30 min	307 ng/mL	4.2 nM
C[C@@H]1C[C@H](C(=O)Cn2cc(C#N)c(Cl)n2)[C@@]2(C)CC[C@H]3[C@@H](CC[C@@H]4C[C@](C)(O)CC[C@@H]43)[C@H]12 [Example 134, 3-Chloro-1-(2-((3R,5R,8R,9R,10S,13S,14S,15R,17S)-3-hydroxy-3,13,15-trimethylhexadecahydro-1H-cyclopenta[a]phenanthren-17-yl)-2-oxoethyl)-1H-pyrazole-4-carbonitrile]	3210 ng·h/mL	3500 ng·h/mL	95.4 min	3.22 h	60 min	892 ng/mL	4630 ng·h/mL	5130 ng·h/mL	107 min	3.31 h	30 min	1750 ng/mL	6.7 nM
C[C@@H]1C[C@H](C(=O)Cn2nc(C#N)cc2C#N)[C@@]2(C)CC[C@H]3[C@@H](CC[C@@H]4C[C@](C)(O)CC[C@@H]43)[C@H]12 [Example 135, 1-(2-((3R,5R,8R,9R,10S,13S,14S,15R,17S)-3-Hydroxy-3,13,15-trimethylhexadecahydro-1H-cyclopenta[a]phenanthren-17-yl)-2-oxoethyl)-1H-pyrazole-3,5-dicarbonitrile]	3740 ng·h/mL	4450 ng·h/mL	169 min	4.71 h	120 min	724 ng/mL	4100 ng·h/mL	4110 ng·h/mL	124 min	4.38 h	120 min	640 ng/mL	4.3 nM
CC[C@@H]1C[C@H](C(=O)Cn2ccc(C(F)(F)F)n2)[C@@]2(C)CC[C@H]3[C@@H](CC[C@@H]4C[C@](C)(O)CC[C@@H]43)[C@H]12 [Example 138, 1-((3R,5R,8R,9R,10S,13S,14S,15R,17S)-15-Ethyl-3-hydroxy-3,13-dimethylhexadecahydro-1H-cyclopenta[a]phenanthren-17-yl)-2-(3-(trifluoromethyl)-1H-pyrazol-1-yl)ethan-1-one]	773 ng·h/mL	935 ng·h/mL	88.2 min	2.38 h	30 min	314 ng/mL	662 ng·h/mL	730 ng·h/mL	99.6 min	2.83 h	30 min	432 ng/mL	25.2 nM
CC[C@@H]1C[C@H](C(=O)Cn2ccnn2)[C@@]2(C)CC[C@H]3[C@@H](CC[C@@H]4C[C@](C)(O)CC[C@@H]43)[C@H]12 [Example 140, 1-((3R,5R,8R,9R,10S,13S,14S,15R,17S)-15-Ethyl-3-hydroxy-3,13-dimethylhexadecahydro-1H-cyclopenta[a]phenanthren-17-yl)-2-(1H-1,2,3-triazol-1-yl)ethan-1-one]	4330 ng·h/mL	4540 ng·h/mL	72.6 min	2.1 h	30 min	1740 ng/mL	5980 ng·h/mL	6110 ng·h/mL	71.4 min	2.22 h	30 min	2480 ng/mL	33.1 nM
